“Also recorded” adds a separate entry of the source.
What was measured:
[1] = system: actin-binding proteins; settings: Yamamura et al., FEBS Lett. 1996; cited from earlier work
[2] = biological target: T1, gelsolin (Homo sapiens, UniProt P06396); experiment: Actin severing activity of gelsolin (50 nM) with LTA or lysolipids; format: biochemical
Method: The tested gelsolin concentration was 50 nM; LTA ranged from 0-50 μM; Pyrene-F-actin was 0.3 μM. Recording changes in fluorescently-labeled (rhodamine B-labeled) gelsolin peptide PBP10 (10 μM), indicates a specific interaction between gelsolin and LTA.

[3] = biological target: T1, gelsolin; settings: Goetzl et al. 2000; cited from earlier work
[4] = system: NF-κB translocation in rat primary astrocytes; experiment: NF-κB translocation to the nucleus in astrocytes; format: cell-based; settings: LPS preincubated with 1.8 μM gelsolin, 2 hour incubation
Method: Rat primary astrocytes were obtained from prenatal rats and maintained for 14 days in culture before use. Embryos (E17-E19) were removed by caesarian section from a Sprague-Dawley rat and the hippocampi were surgically removed. The tissue was digested in trypsin/DNAse at 37° C., centrifuged (1000×5 min) and filtered to derive suspensions from each pup. Cells were grown in an incubator at 37° C. and 5% CO2 in DMEM (Dulbecco's Modified Eagle's Medium; BioWhittaker/Cambrex BioScience, East Rutherford, N.J.), supplemented with Ham's F12 (Sigma-Aldrich, St. Louis, Mo.) and 5% fetal bovine serum (FBS) (Hyclone, Logan, Utah) for 7 days, followed by an additional 7 days in Neurobasal medium (Gibco, Grand Island, N.Y.) also supplemented with 5% FBS, 2 mM l-glutamine, 50 μg/ml streptomycin and 50 U/ml penicillin. In each experiment, the medium was changed to serum-free at 6-12 hours prior to addition of LPS, TNF-α, or gelsolin.
HAECs and astrocytes cultures were incubated for 10 minutes in medium containing 10 μg/ml LPS alone, or LPS that had been pre-incubated with 0.16 mg/ml of human gelsolin. Cultures were fixed with ice-cold methanol and immunostained for F-actin with fluorescein isothiocyanate (FITC)-labeled phalloidin (Molecular Probes, Eugene, Oreg.). In astrocyte cultures, NF-κB translocation was manipulated by a 2 hour incubation in serum-free medium containing one of the following: 10 ng/ml TNF-α, 10 μg/ml LPS alone, or LPS that had been preincubated with 0.16 mg/ml human gelsolin. Location of transcription factor nuclear factor-kappaB (NF-κB) was observed using a monoclonal antibody to NF-κB (Molecular Probes), and cell nuclei were detected by counter-staining with 4′, 6-diamidino-2-phenylindole dihydrochloride (DAPI) (Sigma).

[5] = system: binding of LPS-binding protein (LBP) to LPS; experiment: Competition of gelsolin with 125I-LBP for LPS-coated wells (solid phase); settings: nanomolar concentrations of gelsolin
Method: To determine competition between gelsolin and LPS-binding proteins (LPB), a high affinity carrier for LPS, the LPS-coated wells (1 nmole/per well of LPS Re-595 from Salmonella minnesota) were saturated by incubation (2 hours, 20° C.) with […] 2 mg/ml in RPMI), washed and preincubated with different amount of recombinant human gelsolin (0-2 ng/well) in […] (0.5 mg/ml) containing RPMI. RPMI medium refers to Roswell Park Memorial Institute medium, typically used to culture human lymphoid cells. Then, 10 μl of ^125I-LPB (6×10^4 cpm) were added, and the plates were incubated for 90 minutes at 37° C., then washed six times with RPMI. After that, the bound radioactivity was measured.

[6] = system: rat primary astrocytes; experiment: LPS-induced actin cytoskeleton disassembly, phalloidin staining, astrocytes; format: cell-based; settings: 2 μM (10 μg/ml) LPS preincubated with 1.8 μM (0.16 mg/ml) gelsolin, 10 min, listed as plasma gelsolin
Text: (§1) In light of the findings in the previous Examples, and using the materials prepared in above, the effect of the gelsolin binding by LPS was studied to determine the effect on cellular responses in vitro. Cell cultures of human aortic endothelial cells (HAEC) and rat primary astrocytes were used to evaluate the effect of LPS on actin. Both of these cell types have mCD14 (membrane bound C14) and TLR LPS receptors (Faure, et al., J. Biol. Chem. 275:11058-11063 (2000); Bsibsi, et al., J. Neuropathol. Exp. Neurol. 61:1013-1021 (2002); Bowman, et al., Glia 43:281-291 (2003)).
Rat primary astrocytes were obtained from prenatal rats and maintained for 14 days in culture before use. Embryos (E17-E19) were removed by caesarian section from a Sprague-Dawley rat and the hippocampi were surgically removed. The tissue was digested in trypsin/DNAse at 37° C., centrifuged (1000×5 min) and filtered to derive suspensions from each pup. […]
(§2) HAECs and astrocytes cultures were incubated for 10 minutes in medium containing 10 μg/ml LPS alone, or LPS that had been pre-incubated with 0.16 mg/ml of human gelsolin. […] Location of transcription factor nuclear factor-kappaB (NF-κB) was observed using a monoclonal antibody to NF-κB (Molecular Probes), and cell nuclei were detected by counter-staining with 4′, 6-diamidino-2-phenylindole dihydrochloride (DAPI) (Sigma).

[7] = system: endotoxemic C57BL/6 mice (25 mg/kg LPS E. coli 055:B5 i.p.); experiment: Mortality study of mice challenged with lethal E. coli LPS and treated with GSN, BSA or saline; format: in vivo, mouse
Method: To study the effect on mortality, animals are injected i.p. with 25 mg/kg LPS (E. coli 055:B5, Sigma) and each mouse is randomly selected to receive one of the following three treatments: 1) GSN (containing: 8 mg of recombinant human plasma gelsolin (Biogen-IDEC, Inc) containing 1 mM Ca dissolved in 400 μl of 0.15 M NaCl (saline); or 2) BSA (containing: 8 mg of bovine albumin (Serologicals Proteins, Inc, Kankakee, Ill.) containing 1 mM Ca dissolved in 400 μl of saline, or 3) saline (containing only 400 μl saline). The GSN (gelsolin), BSA or saline solutions are administered subcutaneously at the dorsal surface of each animal immediately after LPS instillation, and then repeated at 24, 48, and 72 hours.
There are 9 mice in the saline group and 8 mice each in the GSN group and the BSA group. Animals are monitored frequently, and mortality is recorded and presented at an interval of days. Animal mortality study data are presented as Kaplan-Meier curves and log-rank test is used to analyze treatment impact on animal mortality. Ap-value less than 0.05 is considered significant.
To measure gelsolin in vivo, a nucleation assay for plasma gelsolin is performed as follows: the collected mouse plasma is diluted 1:5 in Buffer B (0.1 M KCI, 0.2 mM MgCl2, 1 mM EGTA (ethyleneglycol-bis(2-aminoethyl) N,N,N′,N′,-tetraacetic acid), 0.5 mM ATP, 0.5 mM β-mercaptoethanol, 10 mM Tris-HCl buffer, pH 7.4). From the diluted plasma sample, 5 μl is added to 280 μl Buffer B supplemented with 1.5 mm […] and 0.4 μM phallacidin in 6×50 mm borosilicate culture tubes. The actin polymerization reaction is initiated by adding 15 μl 20 μM pyrene-actin in Buffer A (0.5 mM ATP, 0.5 mM β-mercaptoethanol, 0.2 mM CaCl2 […] buffer, pH 7.4). Polymerization is monitored for 200 seconds in a spectrofluorimeter at excitation and emission wavelengths of 366 and 386 nm respectively. Gelsolin concentrations are estimated from a standard curve using recombinant human plasma gelsolin.

[8] = system: LPS-binding protein (LBP); experiment: Binding of 125I-LBP to gelsolin-coated wells
Method: To determine competition between gelsolin and LPS-binding proteins (LPB), a high affinity carrier for LPS, […]), washed and preincubated with different amount of recombinant human gelsolin (0-2 ng/well) in […] (0.5 mg/ml) containing RPMI. RPMI medium refers to Roswell Park Memorial Institute medium, typically used to culture human lymphoid cells. Then, 10 μl of ^125I-LPB (6×10^4 cpm) were added, and the plates were incubated for 90 minutes at 37° C., then washed six times with RPMI. After that, the bound radioactivity was measured.

[9] = system: human neutrophils / human aortic endothelial cells (HAEC); experiment: Neutrophil adhesion to LTA-stimulated HAEC; format: cell-based; settings: gelsolin 2 μM added along with LTA 10 μg/ml
Text: To investigate whether gelsolin can prevent gram-positive bacterial inflammation, the effect of LTA-mediated activation of human neutrophils was examined. Neutrophils were selected because their adhesion to human aorta endothelial cells (HAEC) is a hallmark of inflammation.
Neutrophils were isolated from human blood using the endotoxin-free Lympholyte-poly kit (Cedarlane, Ontario, Canada). The isolated neutrophil cells were resuspended in RPMI media. […] To quantify the adhesion, the neutrophils were labeled with calcein-AM (5 μM for 30 minutes at 37° C.).

[10] = system: human aortic endothelial cells (HAEC); experiment: LPS-induced actin cytoskeleton disassembly, phalloidin staining, endothelial cells; format: cell-based; settings: 2 μM (10 μg/ml) LPS preincubated with 1.8 μM (0.16 mg/ml) gelsolin, 10 min, listed as plasma gelsolin
Text: as §1
HAECs (primary human aortic endothelial cells) (ATCC, Rockville, Md. or Clonetics, San Diego, Calif.), will grow to confluence through passages 5-9 in endothelial cell growth medium supplemented with 2% fetal bovine serum, 10 μg/liter human recombinant epidermal growth factor, 1 mg/liter hydrocortisone, 50 μg/ml gentamicin, 50 ng/ml amphotericin-B, in a 37° C. humidified atmosphere of 95% air:5% C02.
as §2

[11] = biological target: T2, pyrene-labeled SEQ ID No:1 (gelsolin residues 160-169) (Homo sapiens, UniProt P06396); experiment: Pyrene excimer fluorescence of pyrene-labeled SEQ ID No:1 after adding lipids; format: binding; settings: 2 μM pyrene peptide
T2 construct: made in house; host or cells: solid phase peptide synthesis
Method: (§3) Therefore, to determine changes of gelsolin OD at 280 nm, different amounts of LPS, LPA and PS were added to recombinant human gelsolin (rhGLS) solutions and OD emission spectra were recorded using spectrophotometer Genesys 6 (Thermo-Spectronic, USA).
Interaction of LPS and gelsolin was examined using rhodamine B- and pyrene-labeled SEQ ID No:1 (QRLFQVKGRR). The effect of LPS on gelsolin was determined in terms of the rhodamine-B fluorescent changes of PBP10 peptide in the presence of different lipids (FIG. 1C); and the fluorescence emission spectra of pyrene-labeled SEQ ID No:1 (2 μM) in the presence of LPS from Escherichia coli (1.2 μM), PIP2 (0.82 μM) and LPA (0.82 μM) (FIG. 1D) The results using the pyrene-derivatized gelsolin peptide confirmed the LPS induced clustering of the peptide with resulting excimer fluorescence of the pyrene group, which was evident as a large increase in fluorescence emission at 480 nm.

[12] = biological target: T3, recombinant human gelsolin (rhGLS) (Homo sapiens, UniProt P06396); experiment: Actin filament severing activity of purified gelsolin (pyrene F-actin depolymerization); format: biochemical; settings: molar basis comparison
T3 construct: purchased Biogen IDEC, Inc., Cambridge, Mass; host or cells: E. coli
Method: To determine gelsolin's severing activity, rates of fluorescence decrease were evaluated during depolymerization. Monomeric G-actin was prepared from an acetone powder of rabbit skeletal muscle according to previously published methods (Spudich et al., J. Biol. Chem […]). The non-polymerizing solution contained 2 mM TRIS, 0.2 mM CaCl2, 0.5 mM ATP (adenosine triphosphate), 0.2 mM DTT (dithiothreitol) pH 7.4. Actin was polymerized by adding 150 mM KCl and 2 mM MgCl2 to the G-actin solutions and incubating for 1 hour at room temperature.
For F-actin severing assays, in general, a small volume (typically 5 μl) of the gelsolin composition is added to a similar volume of pyrene-labeled F-actin at a concentration adjusted to provide an actin:gelsolin ratio of approximately 10:1 (typically 1 μM gelsolin and 10 μM actin). This mixture is the diluted to 0.5 μM in a larger volume of F-actin buffer, and the filament severing efficiency is calculated from the initial slope of the fluorescence change. This reflects the rate of depolymerization that, in turn, is proportional to the number of cuts made by gelsolin. The LPS/gelsolin reaction can be done under any ionic condition, and the addition to F-actin requires the presence of […] Ca^2+ to activate the gelsolin. […] The actin nucleation reaction is similar except that in the latter case, the gelsolin/LPS mixture is added to a more dilute solution of G-actin (typically, 1 or 2 μM) in low ionic strength buffer followed immediately by addition of 150 mM KCI and 2 mM MgCl2 to initiate polymerization.
As shown, recombinant human gelsolin (rhGLS) (FIG. 4A) and blood serum (FIG. 4B) severing activity was measured in 0.4 μM pyrene-labeled F-actin samples (polymerized with 50% pyrene-labeled G-actin), after adding gelsolin (16 nM)/serum (2.5 μl), or their combination with one of the following: LPS (from different species), PIP2 (phosphatidyl-inositol-4,5-bisphosphate), LPA (lysophosphatidic acid), lipid A (the LPS derivative lacking polysaccharide) or PS (phosphatidylserine). The fluorescence intensity of F-pyrene actin was then monitored for 10 minutes, and the severing activity was calculated based on decreasing fluorescence. Severing activity was determined from a decrease in rate of fluorescence during depolymerization, and the depolymerization rate was calculated from the slope of the early decrease in fluorescence.

[13] = biological target: T3, recombinant human gelsolin (rhGLS); experiment: Change of gelsolin OD at 280 nm after adding lipids; format: binding; settings: OD 280 nm
Method: as §3

T3 sequence (P06396 28-782): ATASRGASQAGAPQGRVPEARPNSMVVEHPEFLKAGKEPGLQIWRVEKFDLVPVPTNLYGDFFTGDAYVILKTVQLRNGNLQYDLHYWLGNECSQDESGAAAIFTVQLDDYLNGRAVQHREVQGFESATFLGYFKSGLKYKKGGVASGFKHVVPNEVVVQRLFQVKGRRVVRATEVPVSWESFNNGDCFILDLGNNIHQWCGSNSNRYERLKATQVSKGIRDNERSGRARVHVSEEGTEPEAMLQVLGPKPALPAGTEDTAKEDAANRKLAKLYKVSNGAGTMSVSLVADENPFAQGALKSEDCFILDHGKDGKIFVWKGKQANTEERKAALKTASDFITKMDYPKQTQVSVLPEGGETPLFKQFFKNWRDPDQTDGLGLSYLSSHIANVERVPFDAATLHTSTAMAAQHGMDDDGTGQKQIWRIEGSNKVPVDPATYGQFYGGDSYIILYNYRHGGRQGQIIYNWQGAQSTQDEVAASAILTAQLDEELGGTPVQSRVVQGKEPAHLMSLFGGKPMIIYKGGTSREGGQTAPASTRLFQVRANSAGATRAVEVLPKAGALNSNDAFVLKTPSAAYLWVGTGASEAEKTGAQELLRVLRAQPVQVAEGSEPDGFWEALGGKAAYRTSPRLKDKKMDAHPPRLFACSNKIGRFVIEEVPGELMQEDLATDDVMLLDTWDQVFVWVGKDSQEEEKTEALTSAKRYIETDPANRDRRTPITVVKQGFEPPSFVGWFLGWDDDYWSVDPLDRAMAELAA
T1 sequence (P06396 28-782): as above

Molecule: CCCCCCCCCCCCC/C=C/[C@@H](O)[C@@H](N)COP(=O)(O)O [S1P, Sphingosine-1-phosphate]
- maximal dissociation [1]: 10%
- inhibition of gelsolin at higher lipid concentrations ([2]; above 1 μM): abrupt drop-off of activity
- inhibition of gelsolin by lysolipids ([2]; lipid below 1 μM): at least as strongly as lysophosphatidic acid (LPA); also recorded: also inhibit gelsolin; also recorded: as least as strongly as LPA does
- binding of S1P by gelsolin [3]: did not bind

Molecule: gelsolin
- blocking of LPS-induced NF-κB translocation [4]: completely blocked; also recorded: blocked LPS-induced translocation; also recorded: blocked by pre-incubation with gelsolin
- inhibition of 125I-LBP binding to LPS coated wells [5]: 69±6%
- effect of gelsolin-preincubated LPS on actin cytoskeleton [6]: no discernable effect on the actin cytoskeletons; also recorded: prevented LPS-induced actin cytoskeleton disassembly
- survival compared to saline or BSA controls ([7]; 8 mg s.c. immediately after LPS and at 24, 48, 72 hours, listed as plasma gelsolin): rescues the endotoxemic mice; also recorded: markedly improved survival
- condition of surviving mice ([7]; Day 7 / after 1 week): complete recovery
- plasma gelsolin level restored in LPS-treated animals ([7]; s.c. administration): 200 µg/mL
- direct binding of 125I-LBP to gelsolin-coated surfaces [8]: did not bind to gelsolin-coated surfaces; also recorded: does not interact directly with the LBP; also recorded: does not bind to gelsolin-coated surfaces
- effect on neutrophil adhesion to LTA-stimulated HAEC [9]: inhibit neutrophil adhesion; also recorded: reduced to near baseline values; also recorded: prevents LTA activation of endothelial cells
- effect of gelsolin-preincubated LPS on actin cytoskeleton [10]: no discernable effect on the actin cytoskeletons; also recorded: prevented LPS-induced actin cytoskeleton disassembly

Molecule: phosphatidylserine [PS]
- induction of pyrene excimer formation (emission 480 nm) [11]: had no effect
- inhibitory effect on severing activity of purified gelsolin [12]: had no effect; also recorded: no inhibitory effect; also recorded: have no effect
- effect on absorbance of gelsolin [13]: had no effect
